In US12247032B2, “Substituted pyrazolo[1,5-a]pyrimidines as inhibitors of JAK kinases” (Genentech, Inc., priority 2019, dated 2025):
pIC50, pKi: −log10 of the molar value. Read-outs that look alike come from different tables or passages of the source.

What was measured:
[1] = target: T1, recombinant human JAK1 kinase domain protein (Residues 854-1154) (Homo sapiens, UniProt P23458); assay: JAK1 biochemical assay (microfluidic mobility shift, peptide phosphorylation); conditions: 25 μM ATP, 1 nM total JAK1; Ki calculated from Ki app (tight-binding, competitive); read-out: Biochem JAK1 Ki
T1 construct: human JAK1 kinase domain protein (Residues 854-1154); purchased Proteros Biostructures GmbH (Martinsried, Germany); host or cells: insect cells
T1 sequence (P23458 854-1154): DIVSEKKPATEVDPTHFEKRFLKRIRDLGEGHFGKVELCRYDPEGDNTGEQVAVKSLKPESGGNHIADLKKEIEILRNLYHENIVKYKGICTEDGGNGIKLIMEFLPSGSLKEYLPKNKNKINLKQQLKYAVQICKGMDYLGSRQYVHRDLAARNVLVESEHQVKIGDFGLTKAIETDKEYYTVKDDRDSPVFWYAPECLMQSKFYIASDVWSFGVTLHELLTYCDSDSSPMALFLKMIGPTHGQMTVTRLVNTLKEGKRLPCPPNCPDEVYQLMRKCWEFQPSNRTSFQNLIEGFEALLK
Method: (§1) The in vitro biochemical assays quantify JAK-catalyzed phosphorylation of a synthetic peptide, as detected using a LabChip® EZ Reader II microfluidic mobility shift instrument (PerkinElmer; Waltham, MA). The substrate peptide Y-1B has the sequence 5-FAM-VALVDGYFRLTT-NH2. Y-1B is fluorescently labeled on the N-terminus with 5-FAM (5-carboxyfluorescein) and contains a single tyrosine residue (Y) that can be phosphorylated by JAK activity. The substrate peptide stock is prepared in DMSO at 5 mM. Purified recombinant human JAK1 kinase domain protein (Residues 854-1154) was expressed in insect cells and procured from Proteros Biostructures GmbH (Martinsried, Germany). Recombinant human JAK2 kinase domain protein (Residues 812-1132) was expressed in insect cells and purified at Genentech, Inc. (South San Francisco, CA).
(§2) The kinase reaction mixtures contained 100 mM 4-(2-hydroxyethyl)-1-piperazineethanesulfonic acid (HEPES) buffer (pH 7.2), 10 mM magnesium chloride, 0.015% Brij® 35, 4 mM dithiothreitol, 1.5 μM Y-1B peptide substrate, 25 μM adenosine triphosphate (ATP), 1 nM total JAK1 or 0.2 nM total JAK2, and up to 1000 nM test compound in a final concentration of 2% (volume to volume [v/v]) DMSO. In each titration experiment, test compound was tested in duplicate at each of the twelve concentrations. Blank reactions contained ATP, peptide, and DMSO, but no JAK or test compound, whereas uninhibited control reactions contained ATP, peptide, JAK, and DMSO, but no test compound.
(§3) Peptide plus ATP mixture (24 μL) was added to 1 μL of test compound in DMSO (or DMSO alone). The reactions were initiated by adding 25 μL of JAK enzyme to the inhibitor/peptide/ATP mixture before thoroughly mixing the resultant solution. Reactions were incubated at room temperature (22° C.-23° C.) in a final volume of 50 μL per well in 384-well plates. After a 30-minute incubation, the reactions were stopped by adding 25 μL of 150 mM ethylenediaminetetraacetic acid in 100 mM HEPES buffer (pH 7.2) containing 0.015% Brij 35 to each well.
(§4) In each reaction, the residual Y-1B substrate and the phospho-peptide product generated were separated using the EZ Reader 1 instrument. Electrophoretic separation of molecules of product from molecules of substrate was achieved using downstream and upstream voltages of −500 and −2600 V, respectively, at an operating pressure of −1.3 psi. The 5-FAM group present on both the substrate and product peptides was excited at 488 nm, the fluorescence was detected at 530 nm, and the peak heights were reported.
(§5) The extent (or percent) of conversion of substrate to product was calculated from the corresponding peak heights in the electropherogram using HTS Well Analyzer software, Version 5.2 (PerkinElmer), and the following equation (Equation 1): % conversion=[P[…](S+P)]×100 Equation 1 where S and P represent the peak heights of the substrate and product, respectively. After any baseline signal from blank wells containing no JAK was subtracted from the signal of all test wells, the % conversion data were converted to fractional activity as shown in Equation 2, where νi and νo are the % conversion in the presence and absence of test compound, respectively. The % conversion observed in the uninhibited control reactions containing JAK and DMSO vehicle, but no test compound, was defined to have fractional activity=1 (with no inhibitor present, νi=νo), whereas blank wells with no JAK were defined as having fractional activity=0. Fractional activity was plotted against test compound concentration and the data were fitted using XLfit software (IDBS; Guildford, United Kingdom) to a tight-binding apparent inhibition constant (Ki^app) quadratic equation (see Equation 2) (Williams J W, Morrison J F. The kinetics of reversible tight-binding inhibition. Methods Enymol 1979; 63:437-67), which was used to calculate fractional activity and Ki^app […]

[2] = target: T2, Recombinant human JAK2 kinase domain protein (Residues 812-1132) (Homo sapiens, UniProt O60674); assay: JAK2 biochemical assay (microfluidic mobility shift, peptide phosphorylation); conditions: 25 μM ATP, 0.2 nM total JAK2; Ki calculated from Ki app (tight-binding, competitive); read-out: Biochem JAK2 Ki
T2 construct: human JAK2 kinase domain protein (Residues 812-1132); made in house; host or cells: insect cells
T2 sequence (O60674 812-1132): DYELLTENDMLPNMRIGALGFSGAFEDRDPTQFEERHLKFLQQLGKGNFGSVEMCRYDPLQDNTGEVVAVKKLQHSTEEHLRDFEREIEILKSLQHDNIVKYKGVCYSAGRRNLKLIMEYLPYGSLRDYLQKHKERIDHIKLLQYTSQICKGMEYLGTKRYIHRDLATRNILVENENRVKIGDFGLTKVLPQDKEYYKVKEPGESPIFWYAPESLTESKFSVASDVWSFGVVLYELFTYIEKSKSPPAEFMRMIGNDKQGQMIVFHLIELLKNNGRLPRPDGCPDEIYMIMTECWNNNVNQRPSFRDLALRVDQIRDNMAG
Method: as §1, §2, §3, §4, §5

[3] = system: JAK1 (IL-13-stimulated STAT6 phosphorylation in BEAS-2B cells); assay: P-STAT6 BEAS-2B+IL-13 cell assay; type: cell-based, human; conditions: 1 hour compound, IL-13 15 minutes, IC50 by four-parameter fit, read-out: Cellular JAK1 PSTAT6 BEAS2B + IL13
Method: In order to study the effect of JAK1 inhibitors in a cell line that is relevant to the cell biology of human asthma, an IL-13-stimulated STAT6 phosphorylation assay in the human lung bronchial epithelial BEAS-2B cell line was developed.
BEAS-2B cells (ATCC® CRL-9609™) were grown in Bronchial Epithelial Growth Medium (BEGM) (Lonza Catalog No. CC-3170; Walkersville, MD; or PromoCell Catalog No. C-21060; Heidelberg, Germany). Test compound stock solutions (0.5 mM in DMSO) were serially diluted 1:2 in DMSO to generate a 10-point concentration curve (at 500× test concentration), which was further diluted by a 50-fold dilution step in BEGM to generate a 10× concentration curve (in 2% DMSO). Cells were plated at 100,000 cells/well in 200 μL of BEGM in 96-well plates and incubated for 48 hours at 37° C. in a humidified incubator. Medium was aspirated from the cells and replaced with 70 μL of fresh BEGM. Diluted test compound (10 μL; or 2% DMSO in assay medium) was added to the cells, and the plates were incubated for 1 hour at 37° C. in a humidified incubator. Twenty μL of 250 ng/mL human recombinant IL-13 (Bio Techne Catalog No. 213-ILB) was then added to the cells and incubated for 15 minutes at 37° C. Medium was aspirated from the cells and 60 μL of ice-cold 1×cell lysis buffer (Cell Signaling Technologies; Catalog No. 9803S) containing 1 mM PMSF was added to the cells. Assay plates were incubated at −80° C. for at least 1 hour. P-STAT6 was measured by coating GAR plates (MSD; Catalog No. L45RA-1) with rabbit anti-human total STAT6 antibody (Cell Signaling Technologies; Catalog No. 9362S), incubating the cell lysates in the coated plates overnight at 4° C., and then detecting with mouse anti-phospho-STAT6 (Tyr641) Clone 16E12 antibody (Millipore; Catalog No. 05-590, custom labeled by MSD with SULFO-tag) using standard MSD plate processing, washing, and detection protocols. Plates were read on the MESO SECTOR S600.
Data analysis was performed by subtracting negative control values from all wells and determining percent of control using the positive control values; the IC50 was determined with a four-parameter logistic fit model as shown in Equation 4.

Structure (SMILES) | pKi [1] | pKi [2] | pIC50 ([3]; Homo sapiens, BEAS-2B, 1 h) | pIC50 [3]
CN(C)CCCN1CC(n2nnnc2Cn2cc(NC(=O)c3cnn4cccnc34)c(-c3cc(OC(F)F)ccc3OC(F)F)n2)C1 [Example 65, N-[3-[2,5-bis(difluoromethoxy)phenyl]-1-[[1-[1-[3-(dimethylamino)propyl]azetidin-3-yl]tetrazol-5-yl]methyl]pyrazol-4-yl]pyrazolo[1,5-a]pyrimidine-3-carboxamide] | 9.39 | 9.42 | 6.18 | 
CN(C)C1CCN(CCn2nnnc2Cn2cc(NC(=O)c3cnn4cccnc34)c(-c3cc(OC(F)F)ccc3OC(F)F)n2)CC1 [Example 60, N-[3-[2,5-bis(difluoromethoxy)phenyl]-1-[[1-[2-[4-(dimethylamino)-1-piperidyl]ethyl]tetrazol-5-yl]methyl]pyrazol-4-yl]pyrazolo[1,5-a]pyrimidine-3-carboxamide] | 9.09 | 9.01 | 7.15 | 
CN(C)CCN1CC(n2nnc(Cn3cc(NC(=O)c4cnn5cccnc45)c(-c4cc(C5CC5)ccc4OC(F)F)n3)n2)C1 [Example 50, N-[3-[5-cyclopropyl-2-(difluoromethoxy)phenyl]-1-[[2-[1-[2-(dimethylamino)ethyl]azetidin-3-yl]tetrazol-5-yl]methyl]pyrazol-4-yl]pyrazolo[1,5-a]pyrimidine-3-carboxamide] | 9.30 | 9.36 | 7.80 | 
CN1CCC(N2CC(n3nnc(Cn4cc(NC(=O)c5cnn6cccnc56)c(-c5cc(OC(F)F)ccc5OC(F)F)n4)n3)C2)C1 (single isomer, unassigned) [Example 73, N-[3-[2,5-bis(difluoromethoxy)phenyl]-1-[[2-[1-(1-methylpyrrolidin-3-yl)azetidin-3-yl]tetrazol-5-yl]methyl]pyrazol-4-yl]pyrazolo[1,5-a]pyrimidine-3-carboxamide] | 9.19 | 9.26 |  | 7.37
CN1CCC[C@H]1CN1CC(n2nnc(Cn3cc(NC(=O)c4cnn5cccnc45)c(-c4cc(OC(F)F)ccc4OC(F)F)n3)n2)C1 (racemic) [Example 46, N-[3-[2,5-bis(difluoromethoxy)phenyl]-1-[[2-[1-[[rac-(2S)-1-methylpyrrolidin-2-yl]methyl]azetidin-3-yl]tetrazol-5-yl]methyl]pyrazol-4-yl]pyrazolo[1,5-a]pyrimidine-3-carboxamide; formic acid] | 9.31 | 9.40 | 7.74 | 
O=C(Nc1cn(Cc2nnn(CCN3CCOCC3)n2)nc1-c1cc(Cl)ccc1OC(F)F)c1cnn2cccnc12 [Example 2, N-[3-[5-chloro-2-(difluoromethoxy)phenyl]-1-[[2-(2-morpholinoethyl)tetrazol-5-yl]methyl]pyrazol-4-yl]pyrazolo[1,5-a]pyrimidine-3-carboxamide] | 9.27 | 9.54 | 7.85 | 
O=C(Nc1cn(Cc2nnnn2CCN2CCOCC2)nc1-c1cc(Cl)ccc1OC(F)F)c1cnn2cccnc12 [Example 5, N-[3-[5-chloro-2-(difluoromethoxy)phenyl]-1-[[1-(2-morpholinoethyl)tetrazol-5-yl]methyl]pyrazol-4-yl]pyrazolo[1,5-a]pyrimidine-3-carboxamide] | 9.40 | 9.64 | 7.82 | 
CSc1ccc(OC(F)F)c(-c2nn(Cc3nnn(CCN(C)C)n3)cc2NC(=O)c2cnn3cccnc23)c1 [Example 36, N-[3-[2-(difluoromethoxy)-5-methylsulfanyl-phenyl]-1-[[2-[2-(dimethylamino)ethyl]tetrazol-5-yl]methyl]pyrazol-4-yl]pyrazolo[1,5-a]pyrimidine-3-carboxamide] | 9.43 | 9.66 | 7.77 | 
CN1CC(Cn2nnnc2Cn2cc(NC(=O)c3cnn4cccnc34)c(-c3cc(OC(F)F)ccc3OC(F)F)n2)C1 [Example 33, N-[3-[2,5-bis(difluoromethoxy)phenyl]-1-[[1-[(1-methylazetidin-3-yl)methyl]tetrazol-5-yl]methyl]pyrazol-4-yl]pyrazolo[1,5-a]pyrimidine-3-carboxamide] | 9.26 | 9.25 | 7.29 | 
CN1CC(CN2CC(n3nnc(Cn4cc(NC(=O)c5cnn6cccnc56)c(-c5cc(OC(F)F)ccc5OC(F)F)n4)n3)C2)C1 [Example 56, N-[3-[2,5-bis(difluoromethoxy)phenyl]-1-[[2-[1-[(1-methylazetidin-3-yl)methyl]azetidin-3-yl]tetrazol-5-yl]methyl]pyrazol-4-yl]pyrazolo[1,5-a]pyrimidine-3-carboxamide] | 9.08 | 9.14 | 7.10 | 
CN(C)C1CCC(N2CC(n3nnc(Cn4cc(NC(=O)c5cnn6cccnc56)c(-c5cc(OC(F)F)ccc5OC(F)F)n4)n3)C2)C1 (single isomer, unassigned) [Example 76, N-[3-[2,5-bis(difluoromethoxy)phenyl]-1-[[2-[1-[3-(dimethylamino)cyclopentyl]azetidin-3-yl]tetrazol-5-yl]methyl]pyrazol-4-yl]pyrazolo[1,5-a]pyrimidine-3-carboxamide] | 8.62 | 8.72 |  | 7.13
